From ChEMBL document CHEMBL5223185, “Squaramide Tethered Clindamycin, Chloroquine, and Mortiamide Hybrids: Design, Synthesis, and Antimalarial Activity” (ACS Med Chem Lett, 2023)
Square brackets hold non-standard residues; d marks the D form. Peptide text beside a SMILES is read from it.

Legend:
Plasmodium falciparum [1] = experiment: Antiplasmodial activity against sorbitol-synchronized post ring stage plasmodium falciparum 3D7 assessed as inhibition of parasite growth incubated for 72 to 96 hrs by parasite susceptibility based microplate reader assay; assay type: functional, organism-based
[2] = Hemolytic activity in human RBC assessed as hemolysis at 0.39 to 12.8 uM incubated for 72 hrs by microplate reader assay; assay type: toxicity, cell-based; details: erythrocyte, dose 0.39-12.8 µM
Plasmodium falciparum [3] = experiment: Antiplasmodial activity against sorbitol-synchronized post ring stage chloroquine, mefloquine and pyrimethamine resistant plasmodium falciparum Dd2 assessed as inhibition of parasite growth incubated for 72 to 96 hrs by parasite susceptibility based microplate reader assay; assay type: functional, organism-based
[4] = Fold resistance,ratio of IC50 for antiplasmodial activity against chloroquine, mefloquine and pyrimethamine resistant plasmodium falciparum Dd2 to IC50 for antiplasmodial activity against plasmodium falciparum 3D7; assay type: functional

Compound: CCC[C@@H]1CC(C(=O)N[C@@H](C2O[C@H](SC)[C@H](O)[C@@H](O)[C@H]2O)[C@@H](C)Nc2c(NCCN(CC)CCCC(C)Nc3ccnc4cc(Cl)ccc34)c(=O)c2=O)N(C)C1 (some centres not stated)
- IC50 (Plasmodium falciparum [1]): 129 nM
- Activity [2]: Non-Toxic
- IC50 (Plasmodium falciparum [3]): 1010 nM
- Ratio [4]: 7.8

Compound: CCC[C@@H]1C[C@@H](C(=O)N[C@@H]([C@H]2O[C@H](SC)[C@H](O)[C@@H](O)[C@H]2O)[C@H](C)Cl)N(C)C1 [CLINDAMYCIN]
- IC50 (Plasmodium falciparum [1]): 8.81 nM

Compound: CCC[C@@H]1C[C@@H](C(=O)N[C@@H]([C@H]2O[C@H](SC)[C@H](O)[C@@H](O)[C@H]2O)[C@@H](C)N=[N+]=[N-])N(C)C1
- IC50 (Plasmodium falciparum [1]): 29.4 nM
- Activity [2]: Non-Toxic
- IC50 (Plasmodium falciparum [3]): 28.6 nM
- Ratio [4]: 1

Compound: CCN(CCCC(C)Nc1ccnc2cc(Cl)ccc12)CCN=[N+]=[N-] (configuration not stated)
- IC50 (Plasmodium falciparum [1]): 2.8 nM
- Activity [2]: Non-Toxic
- IC50 (Plasmodium falciparum [3]): 18 nM
- Ratio [4]: 6.5

Compound: CCN(CCN)CCCC(C)Nc1ccnc2cc(Cl)ccc12 (configuration not stated)
- IC50 (Plasmodium falciparum [1]): 16.7 nM
- Activity [2]: Non-Toxic
- IC50 (Plasmodium falciparum [3]): 285 nM
- Ratio [4]: 17.1

Compound: CCN(CCCC(C)Nc1ccnc2cc(Cl)ccc12)CCNc1c(NCCCC[C@H](NC(C)=O)C(=O)OC)c(=O)c1=O (some centres not stated)
- IC50 (Plasmodium falciparum [1]): 223 nM
- Activity [2]: Non-Toxic
- IC50 (Plasmodium falciparum [3]): 680 nM
- Ratio [4]: 3

Compound: CC[C@@H](C)[C@H]1NC(=O)[C@@H](C)NC(=O)[C@H](Cc2ccccc2)NC(=O)[C@@H](CC(C)C)NC(=O)[C@@H](C(C)C)NC(=O)[C@H](Cc2ccccc2)NC(=O)[C@@H]([C@H](C)CC)NC1=O (cyclo(F[dA][dI][dI]F[dV][dL]))
- IC50 (Plasmodium falciparum [1]): 1310 nM
- IC50 (Plasmodium falciparum [3]): 940 nM
- Ratio [4]: 0.7

Compound: CCOc1c(NCCN(CC)CCCC(C)Nc2ccnc3cc(Cl)ccc23)c(=O)c1=O (configuration not stated)
- IC50 (Plasmodium falciparum [1]): 63.8 nM
- Activity [2]: Non-Toxic
- IC50 (Plasmodium falciparum [3]): 1060 nM
- Ratio [4]: 16.6

Compound: CCN(CCCC(C)Nc1ccnc2cc(Cl)ccc12)CCNc1c(NCCN(CC)CCCC(C)Nc2ccnc3cc(Cl)ccc23)c(=O)c1=O (configuration not stated)
- IC50 (Plasmodium falciparum [1]): 31.3 nM
- Activity [2]: Non-Toxic
- IC50 (Plasmodium falciparum [3]): 80.9 nM
- Ratio [4]: 2.6
